# From US8877773B2, “Methods for treating chronic obstructive pulmonary disease” (Indiana University Research and Technology Corporation, priority 2009, dated 2014)
# Test system: rats exposed to hypercarbic gas
# Assay: Hypercarbic gas (20% CO2) challenge: open-field test
# Assay type: in vivo, rat
# Conditions: 30 mg/kg i.p.
# Experimental: On day 1, rats (n=3/group) were selected from their home cages and placed into experimental cages containing atmospheric air. […] Fecal pellets were counted in cages at the end of gas challenges. In order to assess anxiety-like behavioural responses following exposure to hypercarbic gas, rats were immediately transferred to an adjacent room and place in the center square of an open-field box for a 5 min test. On day 2, the experiment was repeated, but the treatments were reversed for each rat. For instance, rats that received atmospheric gas challenge on day 1 received the hypercapnic gas challenge on day 2.
# The open-field arena covered an area of 90 cm×90 cm, with 40 cm high walls. The open-field arena was divided into a 6×6 grid of equally-sized squares using black tape (36 total squares) with 4 squares forming the center; 12 squares forming the middle perimeter; and 20 squares forming the outer perimeter. The test started by placing a rat in the center. The behavior of each rat in the open-field arena was recorded on video and scored afterwards by an observer (PLJ) blind to the experimental treatment of each rat. Time spent in each region of the open-field was recorded. In addition, locomotor activity was assessed by counting the number of times the rat's entire body (excluding tail) completely crossed into another square.
# All rats received hypercarbic gas infusions as described in detail in Experiment 11. […] Blood pressure, heart rate, locomotor activity, number of fecal pellets and anxiety-like behavior were assessed as described in Experiment 11.
# Dependent variables for analyses of cardiovascular responses (HR, MAP) and locomotor activity were analysed using a […], using gas infusion as the between-subjects factor and time as a within-subjects factor. Dependent variables for the number of fecal pellets and open-field anxiety test (i.e., time spent in each section, line crossings) were analysed using a one-way ANOVA with gas infusion in Experiment 11 and drug treatment in Experiment 12 as the between-subjects factors. […] Within-subjects comparisons were also made on the MAP and HR measures using a Dunnett's test for multiple comparisons with a single control using the 5 Min baseline measurement as the control. The alpha level was set at 0.05 in all cases.
smiles,measurement,setting,value
"Cc1nc2ccc(NC(=O)Nc3ccnc4cccnc34)cc2o1 [SB334867, N-(2-Methyl-6-benzoxazolyl)-N′-1,5-naphthyridin-4-yl urea]",time spent in the center of open field after hypercarbic gas,between groups,No differences
same,time spent in the outer perimeter of open field after hypercarbic gas,between groups,No differences
same,hypercapnic gas-induced anxiety responses,20% CO2/normoxic gas,attenuated
same,time in the middle perimeter region of open field after hypercarbic gas,SB/CO2 vs Veh/CO2 group,significantly more time
